From ChEMBL document CHEMBL1201862, “PubChem BioAssay data set” (2004)
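Cultured in 96-well plates, cells were exposed to test compound for 48 hours across five concentrations. At the GI50, growth is halved.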 Calls of active or inactive are those of the source. No stated cut-off is given here; in the data, active = GI50 up to about 1.1 µM and inactive = higher.

How the values were obtained:
Test in all cases: inhibition of tumour cell growth, NCI panel, 48 h
SK-MEL-2 = test system: SK-MEL-2
OVCAR-5 = test system: OVCAR-5
A549 = test system: A549
MDA-MB-231 = test system: MDA-MB-231
TK-10 = test system: TK-10
M14 = test system: M14
786-0 = test system: 786-0
HL-60 = test system: HL-60
SNB-19 = test system: SNB-19
PC-3 = test system: PC-3
HT-29 = test system: HT-29
SN12C = test system: SN12C
NCI-H522 = test system: NCI-H522
HOP-62 = test system: HOP-62
OVCAR-8 = test system: OVCAR-8
MCF7 = test system: MCF7
UO-31 = test system: UO-31
SK-OV-3 = test system: SK-OV-3
RPMI-8226 = test system: RPMI-8226

Structure (SMILES)	GI50 (SK-MEL-2)	GI50 (OVCAR-5)	GI50 (A549)	GI50 (MDA-MB-231)	GI50 (TK-10)	GI50 (M14)	GI50 (786-0)	GI50 (HL-60)	GI50 (SNB-19)	GI50 (PC-3)	GI50 (HT-29)	GI50 (SN12C)	GI50 (NCI-H522)	GI50 (HOP-62)	GI50 (OVCAR-8)	GI50 (MCF7)	GI50 (UO-31)	GI50 (SK-OV-3)	GI50 (RPMI-8226)
COc1ccccc1C1(c2c(OC(C)C)c(=O)c2=O)SCCCS1	> 100 µM (inactive)	> 100 µM (inactive)	> 100 µM (inactive)	> 100 µM (inactive)	> 100 µM (inactive)	> 100 µM (inactive)	> 100 µM (inactive)	> 100 µM (inactive)	> 100 µM (inactive)	> 100 µM (inactive)	> 100 µM (inactive)	> 100 µM (inactive)	65.9 µM (inactive)	> 100 µM (inactive)	> 100 µM (inactive)	> 100 µM (inactive)	> 100 µM (inactive)	> 100 µM (inactive)	
O=C1CC(NC(=O)C(F)(F)F)c2c(Br)sc(N3CCC(c4ccccc4)CC3)c21 (centres undefined)	0.973 µM (active)	> 100 µM (inactive)	32.8 µM (inactive)	3.73 µM (inactive)	19 µM (inactive)	> 100 µM (inactive)	20.8 µM (inactive)	9.44 µM (inactive)	20.8 µM (inactive)	25.6 µM (inactive)	56.5 µM (inactive)	> 100 µM (inactive)	7.94 µM (inactive)		24.9 µM (inactive)	18.7 µM (inactive)	8.77 µM (inactive)	64 µM (inactive)	
O=C(NCCC1CN(S(=O)(=O)C(F)(F)F)c2ccccc21)OCc1ccccc1 (centres undefined)	> 100 µM (inactive)	> 100 µM (inactive)	> 100 µM (inactive)	> 100 µM (inactive)		> 100 µM (inactive)	> 100 µM (inactive)		> 100 µM (inactive)	> 100 µM (inactive)	> 100 µM (inactive)		57 µM (inactive)	> 100 µM (inactive)	> 100 µM (inactive)	> 100 µM (inactive)	> 100 µM (inactive)	> 100 µM (inactive)	> 100 µM (inactive)
C=CC1ON(Cc2ccccc2)CCc2cc(OC)c(OC)cc21 (centres undefined)		> 100 µM (inactive)	44.2 µM (inactive)	81.1 µM (inactive)	> 100 µM (inactive)	49.7 µM (inactive)	> 100 µM (inactive)	26.1 µM (inactive)	> 100 µM (inactive)	48.9 µM (inactive)	42.4 µM (inactive)	77.4 µM (inactive)	41.5 µM (inactive)	85.5 µM (inactive)	> 100 µM (inactive)	> 100 µM (inactive)	25.5 µM (inactive)	56.5 µM (inactive)	30.3 µM (inactive)
CN1N=C(c2ccccc2)c2cc(Cl)ccc2N=C1N/N=C/c1ccc(N(C)C)cc1			> 100 µM (inactive)	97.7 µM (inactive)	> 100 µM (inactive)	> 100 µM (inactive)	> 100 µM (inactive)	39.6 µM (inactive)	> 100 µM (inactive)	58.5 µM (inactive)	> 100 µM (inactive)	> 100 µM (inactive)	> 100 µM (inactive)	> 100 µM (inactive)	> 100 µM (inactive)	> 100 µM (inactive)	> 100 µM (inactive)	> 100 µM (inactive)	70.5 µM (inactive)
O=[N+]([O-])c1ccc(Oc2c(Cl)cc(S(=O)(=O)N/C(=N\O)Nc3ccc(Cl)cc3)cc2Cl)c(Cl)c1	17 µM (inactive)	19.5 µM (inactive)	17.1 µM (inactive)	17 µM (inactive)	16 µM (inactive)	16.5 µM (inactive)	14.7 µM (inactive)	26.2 µM (inactive)	16.9 µM (inactive)	13.3 µM (inactive)	16.9 µM (inactive)	14.3 µM (inactive)	13 µM (inactive)	16.5 µM (inactive)	22.8 µM (inactive)	17.2 µM (inactive)	13.7 µM (inactive)		15.2 µM (inactive)
